This passage reports IC50 results from ChEMBL document CHEMBL4616718, “Discovery of Potent Small-Molecule Inhibitors of MLL Methyltransferase” (ACS Med Chem Lett, 2020).

The experiment addresses MLL1-ASH2L/RbBP5/WDR5/DPY30. Briefly: Inhibition of recombinant human MLL1 complex (MLL1/Ash2L/RbBP5/WDR5/DPY-30) expressed in Escherichia coli Rosetta 2 (DE3) cells using H3 (1 to 21) peptide as substrate incubated for 1 hr in presence of 3[H] SAM by […] assay. Background: Alpha assays give light when donor and acceptor beads are brought close together.
As a reminder, the IC50 is the concentration at which inhibition is half-maximal. Consider `Nc1ncnc2c1ncn2[C@@H]1O[C@H](CN(CC[C@H](N)C(=O)O)CC2CN(CCCc3ccccc3)C2)[C@@H](O)[C@H]1O`, for which the IC50 was 29.6 nM.
Under `Nc1ncnc2c1ncn2[C@@H]1O[C@H](CN(CC[C@H](N)C(=O)O)CC2CN(Cc3ccc(Cl)cc3)C2)[C@@H](O)[C@H]1O` stands 55.6 nM; under `NCCN(CC[C@H](N)C(=O)O)C[C@H]1O[C@@H](n2cnc3c(N)ncnc32)[C@H](O)[C@@H]1O`, 592 nM; under `Nc1ncnc2c1ncn2[C@@H]1O[C@H](CN(CC[C@H](N)C(=O)O)C2CN(CCCC3CCCC3)C2)[C@@H](O)[C@H]1O`, 234 nM.
Regarding `Nc1ncnc2c1ncn2[C@@H]1O[C@H](CN(CC[C@H](N)C(=O)O)CC2CN(Cc3ccccc3Cl)C2)[C@@H](O)[C@H]1O`, the IC50 amounted to 150 nM.
For the compound `Nc1ncnc2c1ncn2[C@@H]1O[C@H](CN(CC[C@H](N)C(=O)O)CC2CN(Cc3coc4ccccc34)C2)[C@@H](O)[C@H]1O`, the IC50 was 119 nM.
Turning to `Nc1ncnc2c1ncn2[C@@H]1O[C@H](CN(CC[C@H](N)C(=O)O)CC2CN(Cc3cccc(Cl)c3)C2)[C@@H](O)[C@H]1O`, the IC50 came to 99.5 nM.
`Nc1ncnc2c1ncn2[C@@H]1O[C@H](CN(CC[C@H](N)C(=O)O)CC2CN(CCC(c3ccccc3)c3ccccc3)C2)[C@@H](O)[C@H]1O`: the concentration for half-maximal inhibition (IC50) was 138 nM.
As to `Nc1ncnc2c1ncn2[C@@H]1O[C@H](CN(CC[C@H](N)C(=O)O)C2CC(NCCCC3CCCC3)C2)[C@@H](O)[C@H]1O` (some centres undefined), the IC50 stood at 127 nM.
Regarding `Nc1ncnc2c1ncn2[C@@H]1O[C@H](CN(CC[C@H](N)C(=O)O)CC2CN(Cc3cccs3)C2)[C@@H](O)[C@H]1O`, the IC50 is 66.5 nM.
As to `Nc1ncnc2c1ncn2[C@@H]1O[C@H](CN(CC[C@H](N)C(=O)O)C2CC(CNCCCc3ccccc3)C2)[C@@H](O)[C@H]1O` (some centres undefined), the IC50 worked out at 451 nM.
On to `CCCCN1CC(CN(CC[C@H](N)C(=O)O)C[C@H]2O[C@@H](n3cnc4c(N)ncnc43)[C@H](O)[C@@H]2O)C1`, for which the 50% inhibitory concentration (IC50) came out at 72.4 nM.
In the case of `Nc1ncnc2c1ncn2[C@@H]1O[C@H](CN(CC[C@H](N)C(=O)O)CC2CN(CCCC3CCCC3)C2)[C@@H](O)[C@H]1O`, the IC50 was 25.5 nM.
`Nc1ncnc2c1ncn2[C@@H]1O[C@H](CN(CC[C@H](N)C(=O)O)CC2CN(Cc3ccoc3)C2)[C@@H](O)[C@H]1O`: the concentration for half-maximal inhibition (IC50) turned out to be 21.8 nM.
As for `Nc1ncnc2c1ncn2[C@@H]1O[C@H](CN(CC[C@H](N)C(=O)O)Cc2cn(CCc3ccccc3)nn2)[C@@H](O)[C@H]1O`, the IC50 worked out at 132 nM.
Consider `Nc1ncnc2c1ncn2[C@@H]1O[C@H](CN(CC[C@H](N)C(=O)O)CC2CN(Cc3ccsc3)C2)[C@@H](O)[C@H]1O`, for which the concentration for half-maximal inhibition (IC50) amounted to 15.2 nM.
As for `Nc1ncnc2c1ncn2[C@@H]1O[C@H](CN(CC[C@H](N)C(=O)O)CC2CN(Cc3ccccc3)C2)[C@@H](O)[C@H]1O`, the half-maximal inhibitory concentration (IC50) worked out at 46.8 nM.
Turning to `Nc1ncnc2c1ncn2[C@@H]1O[C@H](CN(CCCNCCCc2ccccc2)CC[C@H](N)C(=O)O)[C@@H](O)[C@H]1O`, the half-maximal inhibitory concentration (IC50) worked out at 201 nM.
Under `Nc1ncnc2c1ncn2[C@@H]1O[C@H](CSCC[C@H](N)C(=O)O)[C@@H](O)[C@H]1O` [S-ADENOSYLHOMOCYSTEINE] stands 724 nM.
